pEC50: −log10 of the molar value.
System: ATF4 luciferase reporter in HEK293T cells
Test: ATF4-Luc assay (ATF4 luciferase reporter, tunicamycin-treated HEK293T cells)
Type: cell-based, human
Details: Homo sapiens, HEK-293T; HEK293T cells carrying the ATF4 luciferase reporter, 1 μg/mL tunicamycin, 7 hours

| Structure (SMILES) | pEC50 |
| --- | --- |
| O=C(COc1ccc(Cl)c(F)c1)NC12CC(NC(=O)COc3ccccc3F)(C1)C2 [Compound 411, 2-(4-chloro-3-fluorophenoxy)-N-{3-[2-(2-fluorophenoxy)acetamido]bicyclo[1.1.1]pentan-1-yl}acetamide] | 7.30 to 8.00 |
| COc1cc(Cl)ccc1OCC(=O)NC12CC(NC(=O)COc3ccc(Cl)c(F)c3)(C1)C2 [Compound 412, 2-(4-chloro-3-fluorophenoxy)-N-{3-[2-(4-chloro-2-methoxyphenoxy)acetamido]bicyclo[1.1.1]pentan-1-yl}acetamide] | 6.60 to 7.30 |
| CC(O)(c1ccc(OCC(=O)NC23CC(NC(=O)COc4ccc(Cl)c(F)c4)(C2)C3)cc1)C(F)(F)F (centres unmarked) [Compound 413, 2-(4-chloro-3-fluorophenoxy)-N-(3-{2-[4-(1,1,1-trifluoro-2-hydroxypropan-2-yl)phenoxy]acetamido}bicyclo[1.1.1]pentan-1-yl)acetamide] | 6.30 to 6.60 |
| O=C(COc1ccc(Cl)c(F)c1)NC12CC(NC(=O)COc3cc(F)c(F)cc3F)(C1)C2 [Compound 414, 2-(4-chloro-3-fluorophenoxy)-N-{3-[2-(2,4,5-trifluorophenoxy)acetamido]bicyclo[1.1.1]pentan-1-yl}acetamide] | > 8.00 |
| O=C(COc1ccc(Cl)c(F)c1)NC12CC(NC(=O)COc3ccc(OC(F)(F)F)c(F)c3)(C1)C2 [Compound 415, 2-(4-chloro-3-fluorophenoxy)-N-(3-{2-[3-fluoro-4-(trifluoromethoxy)phenoxy]acetamido}bicyclo[1.1.1]pentan-1-yl)acetamide] | > 8.00 |
| O=C(COc1ccc(Cl)c(F)c1)NC12CC(NC(=O)COc3cc(F)c(F)c(F)c3)(C1)C2 [Compound 416, 2-(4-chloro-3-fluorophenoxy)-N-{3-[2-(3,4,5-trifluorophenoxy)acetamido]bicyclo[1.1.1]pentan-1-yl}acetamide] | > 8.00 |
| O=C(COc1ccc(Cl)c(F)c1)NC12CC(NC(=O)[C@@H](CO)Oc3ccc(Cl)c(F)c3)(C1)C2 [Compound 418, (2R)-2-(4-chloro-3-fluorophenoxy)-N-{3-[2-(4-chloro-3-fluorophenoxy)acetamido]bicyclo[1.1.1]pentan-1-yl}-3-hydroxypropanamide] | 7.30 to 8.00 |
| O=C(COc1ccc(Cl)c(F)c1)NC12CCC(NC(=O)COc3ccc(Cl)c(F)c3)(CC1)[C@@H](c1nn[nH]n1)C2 [Compound 419, N,N′-[(2S)-2-(2H-tetrazol-5-yl)bicyclo[2.2.2]octane-1,4-diyl]bis[2-(4-chloro-3-fluorophenoxy)acetamide]] | 6.60 to 7.30 |
| Cc1noc([C@H]2CC3(NC(=O)COc4ccc(Cl)c(F)c4)CCC2(NC(=O)COc2ccc(Cl)c(F)c2)CC3)n1 [Compound 420, N,N′-[(2S)-2-(3-methyl-1,2,4-oxadiazol-5-yl)bicyclo[2.2.2]octane-1,4-diyl]bis[2-(4-chloro-3-fluorophenoxy)acetamide]] | > 8.00 |
| COCC(Oc1ccc(Cl)c(F)c1)C(=O)NC12CC(NC(=O)COc3ccc(Cl)c(F)c3)(C1)C2 (centres unmarked) [Compound 421, 2-(4-chloro-3-fluorophenoxy)-N-{3-[2-(4-chloro-3-fluorophenoxy)acetamido]bicyclo[1.1.1]pentan-1-yl}-3-methoxypropanamide] | 6.60 to 7.30 |
| CC(C)(O)c1ccc(OCC(=O)NC23CC(NC(=O)COc4ccc(Cl)c(Cl)c4)(C2)C3)cc1 [Compound 422, 2-(3,4-dichlorophenoxy)-N-(3-{2-[4-(2-hydroxypropan-2-yl)phenoxy]acetamido}bicyclo[1.1.1]pentan-1-yl)acetamide] | 6.30 to 6.60 |
| Cc1cc(CC(=O)NC23CCC(NC(=O)COc4ccc(Cl)c(F)c4)(CC2)C(O)C3)on1 (centres unmarked) [Compound 423, 2-(4-chloro-3-fluorophenoxy)-N-{2-hydroxy-4-[2-(3-methyl-1,2-oxazol-5-yl)acetamido]bicyclo[2.2.2]octan-1-yl}acetamide] | < 5.70 |
| O=C(/C=C/c1ccc(OC(F)(F)F)cn1)NC12CCC(NC(=O)COc3ccc(Cl)c(F)c3)(C1)C2 [Compound 425, (2E)-N-{4-[2-(4-chloro-3-fluorophenoxy)acetamido]bicyclo[2.1.1]hexan-1-yl}-3-[5-(trifluoromethoxy)pyridin-2-yl]prop-2-enamide] | 5.70 to 6.30 |
| O=C(COc1ccc(Cl)c(F)c1)NC12CC(NS(=O)(=O)Cc3ccc(C(F)(F)F)cc3)(C1)C2 [Compound 426, 2-(4-chloro-3-fluorophenoxy)-N-[3-({[4-(trifluoromethyl)phenyl]methanesulfonyl}amino)bicyclo[1.1.1]pentan-1-yl]acetamide] | 6.60 to 7.30 |
| O=C(COc1ccc(Cl)c(F)c1)NC12CC(NS(=O)(=O)Cc3ccc(Cl)cc3)(C1)C2 [Compound 427, 2-(4-chloro-3-fluorophenoxy)-N-(3-{[(4-chlorophenyl)methanesulfonyl]amino}bicyclo[1.1.1]pentan-1-yl)acetamide] | 5.70 to 6.30 |
| O=C(COc1ccc(Cl)c(F)c1)NC12CC(NS(=O)(=O)Cc3cccc(C(F)(F)F)c3)(C1)C2 [Compound 428, 2-(4-chloro-3-fluorophenoxy)-N-[3-({[3-(trifluoromethyl)phenyl]methanesulfonyl}amino)bicyclo[1.1.1]pentan-1-yl]acetamide] | 5.70 to 6.30 |

| Structure (SMILES) | pEC50 |
| --- | --- |
| O=C(COc1ccc(Cl)c(F)c1)NC12CCC(NS(=O)(=O)Cc3ccc(C(F)(F)F)cc3)(CC1)[C@@H](O)C2 [Compound 429, 2-(4-chloro-3-fluorophenoxy)-N-[(3S)-3-hydroxy-4-({[4-(trifluoromethyl)phenyl]methanesulfonyl}amino)bicyclo[2.2.2]octan-1-yl]acetamide] | 6.60 to 7.30 |
| O=C(COc1ccc(Cl)c(F)c1)NC12CCC(NS(=O)(=O)Cc3cccc(C(F)(F)F)c3)(CC1)[C@@H](O)C2 [Compound 430, 2-(4-chloro-3-fluorophenoxy)-N-[(3S)-3-hydroxy-4-({[3-(trifluoromethyl)phenyl]methanesulfonyl}amino)bicyclo[2.2.2]octan-1-yl]acetamide] | 5.70 to 6.30 |
| O=C(COc1ccc(Cl)c(F)c1)NC12CC(NC(=O)Nc3ccc(Cl)cc3)(C1)C2 [Compound 431, 2-(4-chloro-3-fluorophenoxy)-N-(3-{[(4-chlorophenyl)carbamoyl]amino}bicyclo[1.1.1]pentan-1-yl)acetamide] | 6.60 to 7.30 |
| O=C(COc1ccc(Cl)c(F)c1)NC12CC(NC(=O)Nc3ccc(Cl)cc3O)(C1)C2 [Compound 432, 2-(4-chloro-3-fluorophenoxy)-N-(3-{[(4-chloro-2-hydroxyphenyl)carbamoyl]amino}bicyclo[1.1.1]pentan-1-yl)acetamide] | 6.60 to 7.30 |
| Cc1ccc(OC(=O)NC23CCC(NC(=O)COc4ccc(Cl)c(F)c4)(CC2)CC3O)cc1 (centres unmarked) [Compound 433, 4-methylphenyl {4-[2-(4-chloro-3-fluorophenoxy)acetamido]-2-hydroxybicyclo[2.2.2]octan-1-yl}carbamate] | 6.60 to 7.30 |
| O=C(COc1ccc(Cl)c(F)c1)NC12CC(NC(=O)Oc3ccc(Cl)cc3)(C1)C2 [Compound 434, 4-chlorophenyl {3-[2-(4-chloro-3-fluorophenoxy)acetamido]bicyclo[1.1.1]pentan-1-yl}carbamate] | 6.30 to 6.60 |
| Cc1ccc(OC(=O)NC23CC(NC(=O)COc4ccc(Cl)c(F)c4)(C2)C3)cc1 [Compound 435, 4-methylphenyl {3-[2-(4-chloro-3-fluorophenoxy)acetamido]bicyclo[1.1.1]pentan-1-yl}carbamate] | 6.30 to 6.60 |
| O=C(COc1ccc(Cl)c(F)c1)NC12CCC(NC(=O)Oc3ccc(Cl)cc3)(CC1)C(O)C2 (centres unmarked) [Compound 436, 4-chlorophenyl {4-[2-(4-chloro-3-fluorophenoxy)acetamido]-2-hydroxybicyclo[2.2.2]octan-1-yl}carbamate] | 6.60 to 7.30 |
| O=C(COc1ccc(Cl)cc1)NC12CCC(NC(=O)COc3ccc(Cl)c(F)c3)(CC1)[C@@H](O)C2 [Compound 437, 2-(4-chloro-3-fluorophenoxy)-N-{(2S)-4-[2-(4-chlorophenoxy)acetamido]-2-hydroxybicyclo[2.2.2]octan-1-yl}acetamide] | > 8.00 |
| O=C(COc1ccc(Cl)c(Cl)c1)NC12CCC(NC(=O)COc3ccc(Cl)c(F)c3)(CC1)[C@@H](O)C2 [Compound 438, 2-(4-chloro-3-fluorophenoxy)-N-{(2S)-4-[2-(3,4-dichlorophenoxy)acetamido]-2-hydroxybicyclo[2.2.2]octan-1-yl}acetamide] | > 8.00 |
| Cc1cc(OC(C)(C)C(=O)NC23CCC(NC(=O)COc4ccc(Cl)c(F)c4)(CC2)C[C@@H]3O)ccc1Cl [Compound 439, N-{(2S)-4-[2-(4-chloro-3-fluorophenoxy)acetamido]-2-hydroxybicyclo[2.2.2]octan-1-yl}-2-(4-chloro-3-methylphenoxy)-2-methylpropanamide] | > 8.00 |
| O=C(COc1ccc(Cl)c(F)c1)NC12CCC(NC(=O)COc3ccc(Cl)c(F)c3)(CC1)C2 [Compound 440, N,N′-(bicyclo[2.2.1]heptane-1,4-diyl)bis[2-(4-chloro-3-fluorophenoxy)acetamide]] | > 8.00 |
| NC(=O)C1CC2(NC(=O)COc3ccc(Cl)c(F)c3)CCC1(NC(=O)COc1ccc(Cl)c(F)c1)CC2 (centres unmarked) [Compound 441, 1,4-bis[2-(4-chloro-3-fluorophenoxy)acetamido]bicyclo[2.2.2]octane-2-carboxamide] | 7.30 to 8.00 |
| Cc1ccc(OCC(=O)NC23CCC(NC(=O)COc4ccc(C)cc4)(CC2)[C@@H](O)C3)cc1 [Compound 442, N,N′-[(2S)-2-hydroxybicyclo[2.2.2]octane-1,4-diyl]bis[2-(4-methylphenoxy)acetamide]] | > 8.00 |
| Cc1ccc(OCC(=O)NC23CCC(NC(=O)COc4ccc(C)c(C)c4)(CC2)[C@@H](O)C3)cc1C [Compound 443, N,N′-[(2S)-2-hydroxybicyclo[2.2.2]octane-1,4-diyl]bis[2-(3,4-dimethylphenoxy)acetamide]] | > 8.00 |
| CN(C(=O)COc1ccc(Cl)c(F)c1)C12CCC(NC(=O)COc3ccc(Cl)c(F)c3)(CC1)[C@@H](O)C2 [Compound 444, 2-(4-chloro-3-fluorophenoxy)-N-{(3S)-4-[2-(4-chloro-3-fluorophenoxy)acetamido]-3-hydroxybicyclo[2.2.2]octan-1-yl}-N-methylacetamide] | 7.30 to 8.00 |

— patent US20240166652A1, “MODULATORS OF THE INTEGRATED STRESS PATHWAY” (Calico Life Sciences LLC, priority 2017, published 2024)
